Measured values taken from US9107891B2, “Method for alleviating fear memory” (NIPPON SUISAN KAISHA, LTD., priority 2011, dated 2015).

Key:
[1] = tested on: pyramidal cells in the basolateral nucleus of amygdala; assay: Patch-clamp in brain slices: depolarization-induced suppression of excitation (DSE); type: cell-based; design: unit of the concentration uncertain; settings: both groups of mice
Text: Patch-clamp recordings from pyramidal cells in the amygdala were taken in accordance with the methods described in Non-Patent Documents 21 and 22. […] The access resistance was frequently checked during recording and any cells that experienced substantial changes (±20%) in its value during recording were excluded from analysis.
Whole-cell patch recordings were taken from pyramidal cells in the basolateral nucleus of amygdala. A bipolar glass electrode filled with an artificial cerebrospinal fluid was placed in the vicinity of the cell to be recorded and an electric stimulus was applied to the slice. First, the evoked excitatory postsynaptic current (eEPSC) was recorded from neurons in the amygdala. Subsequently, the cell being recorded was depolarized for 10 seconds and, immediately thereafter, eEPSC was recorded again. The ratio of the amplitude of eEPSC after depolarization (Ipost) to that of EPSC before depolarization (Ipre) (Ipost/Ipre) was calculated, and was used to assess the degree of DSE. In addition, to confirm the cannabinoid receptor dependency of DSE, recording was conducted with a brain slice immersed in an artificial cerebrospinal fluid containing rimonabant (5 mM). […] Thus, DSE was recorded in a brain slice immersed in an artificial cerebrospinal fluid containing capsaicin (10 mM) and the resulting changes were also studied.

fear memory in mice = assay: Fear conditioning test (freezing time); type: in vivo; settings: administered 30 minutes before fear conditioning, 5% krill oil diet 6 weeks
Text: The present inventors evaluated the actions of food ingredients on fear memory by the “fear conditioning experiment” (J Neurosci 27 158-166, 2007) which is extensively used as an evaluation system for fear memory in mice.
A cubic experimental box made of acrylic resin having a bottom of 20 cm×20 cm and a height of 33 cm, with a conductive metallic grid being laid across the bottom, was used as a new environment for conditioning; each mouse was put into the experimental box and conditioned by applying electric shocks (0.8 mA, 2 s) from the bottom grid. Feeling an intense pain from each electric shock, a mouse memorizes that when placed in the new environment, it will suffer pain from electric shocks. The mice were then returned to the breeding cage where they had been kept before the conditioning.
On the next day (the second day of the behavioral experiment), each mouse was put again into the experimental box where it was given electric shocks on the previous day; even in the absence of applied electric shocks, it would be scared to cringe, a characteristic freezing behavior from fear. The degree of fear memory was assessed by the degree of the freezing behavior, namely, the freezing time during a 3-minute exposure to the experimental box. […]

COc1cc(CNC(=O)CCCC/C=C/C(C)C)ccc1O [capsaicin]
effect on DSE ([1]; brain slice in artificial cerebrospinal fluid containing capsaicin (10 (unit uncertain))): suppress DSE

C=CCN1CC[C@]23c4c5ccc(O)c4O[C@H]2C(=O)CC[C@@]3(O)[C@H]1C5 [naloxone]
freezing time, naloxone-administered krill oil group vs solvent-administered krill group (fear memory in mice; Test Example 12, FIG. 13): no difference in freezing time

Cc1c(C(=O)NN2CCCCC2)nn(-c2ccc(Cl)cc2Cl)c1-c1ccc(Cl)cc1 [rimonabant]
effect on DSE ([1]; brain slice in artificial cerebrospinal fluid containing rimonabant (5 (unit uncertain))): suppressed DSE almost completely | freezing time, rimonabant-administered krill oil group vs solvent-administered control group (fear memory in mice; Test Example 11, FIG. 12): No significant difference
